Source: ChEMBL document CHEMBL1201862, “PubChem BioAssay data set” (2004)
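Grown in 96-well plates, cells were treated for 48 hours with each compound at five concentrations. Insufficient inhibition: endpoint recorded as highest concentration tested. GI50 is the concentration that inhibits growth by half.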 Active and inactive are the calls of the source. No stated cut-off is given here; in the data, active = GI50 up to about 1.1 µM and inactive = higher.

How the values were obtained:
Assay in all cases: NCI-60 cell line screen, 48 h
[1] = system: Hs-578T
[2] = system: SNB-75
[3] = system: MCF7
[4] = system: OVCAR-8
[5] = system: SR
[6] = system: A498
[7] = system: 786-0
[8] = system: TK-10
[9] = system: SW-620
[10] = system: KM12
[11] = system: HCT-15
[12] = system: SNB-19
[13] = system: K562
[14] = system: NCI/ADR-RES
[15] = system: HCT-116
[16] = system: BT-549
[17] = system: SF-539
[18] = system: A549
[19] = system: RXF 393
[20] = system: MDA-MB-231

SMILES	GI50 [1]	GI50 [2]	GI50 [3]	GI50 [4]	GI50 [5]	GI50 [6]	GI50 [7]	GI50 [8]	GI50 [9]	GI50 [10]	GI50 [11]	GI50 [12]	GI50 [13]	GI50 [14]	GI50 [15]	GI50 [16]	GI50 [17]	GI50 [18]	GI50 [19]	GI50 [20]
O=[N+]([O-])c1ccc2c(c1)nc(Cc1ccc(Cl)cc1)n2C[C@@H]1CCCN2CCCCC12 (stereo not given in full)	13.5 µM (inactive)	15 µM (inactive)	0.54 µM (active)	15.1 µM (inactive)	22.7 µM (inactive)	6.05 µM (inactive)	11.8 µM (inactive)	17.6 µM (inactive)	20.8 µM (inactive)	13.5 µM (inactive)	16 µM	22.8 µM (inactive)	15 µM (inactive)	13.9 µM (inactive)	10.5 µM (inactive)	13 µM (inactive)	18.4 µM (inactive)	19.2 µM (inactive)	11.6 µM (inactive)	16.5 µM (inactive)
CCOC(=O)C(Cc1c2ccccc2cc2ccccc12)(NC(C)=O)C(=O)OCC	46.8 µM (inactive)	> 19.8 µM (inactive)	2.99 µM (inactive)	67.6 µM (inactive)	70.5 µM (inactive)	55.5 µM (inactive)	76.4 µM (inactive)	> 100 µM (inactive)	> 79.8 µM (inactive)	97.7 µM (inactive)	> 49.3 µM	> 78.5 µM (inactive)	> 69.8 µM (inactive)	> 50.2 µM (inactive)	48.9 µM (inactive)	99.8 µM (inactive)	> 64.6 µM (inactive)	> 72.8 µM (inactive)	42.7 µM (inactive)	> 23.1 µM (inactive)
CCC1=[N+](CC)CCN1CC	> 100 µM (inactive)	> 100 µM (inactive)	> 100 µM (inactive)	> 100 µM (inactive)	> 100 µM (inactive)	> 100 µM (inactive)	> 100 µM (inactive)	> 100 µM (inactive)	> 100 µM (inactive)	> 100 µM (inactive)	> 100 µM	> 100 µM (inactive)	> 100 µM (inactive)	> 100 µM (inactive)	> 100 µM (inactive)	> 100 µM (inactive)	> 100 µM (inactive)	> 100 µM (inactive)	> 100 µM (inactive)	> 100 µM (inactive)
COc1cc2c(c(OC)c1OC)-c1ccc(SC)cc1[C@H](OC(=O)c1ccccc1)CC2	0.132 µM (active)	> 100 µM (inactive)	0.0311 µM (active)	0.158 µM (active)	0.0247 µM (active)	0.437 µM (active)	0.106 µM (active)	> 100 µM (inactive)	0.0313 µM (active)	0.0488 µM (active)	0.0667 µM	0.0828 µM (active)	0.0849 µM (active)	0.0946 µM (active)	0.0817 µM (active)	0.309 µM (active)	0.0369 µM (active)	0.123 µM (active)	0.0334 µM (active)	0.284 µM (active)
COC(=O)C1(Cc2cccc(C)c2)Cc2c(C)cccc2C1=O (stereo not given)	38.5 µM (inactive)	43.3 µM (inactive)	33.7 µM (inactive)	80.7 µM (inactive)	> 100 µM (inactive)	34 µM (inactive)	93.8 µM (inactive)	89.3 µM (inactive)	31.4 µM (inactive)	28.1 µM (inactive)	32.1 µM	98.9 µM (inactive)	35.9 µM (inactive)	24 µM (inactive)	36.4 µM (inactive)	56.1 µM (inactive)	38.4 µM (inactive)	38.6 µM (inactive)	29.4 µM (inactive)	52.8 µM (inactive)
CCCc1nnc2sc(COc3ccc(OCc4nn5c(CCC)nnc5s4)c(Cl)c3)nn12	47 µM (inactive)	22.2 µM (inactive)	20.9 µM (inactive)	31 µM (inactive)	17.8 µM (inactive)	23.6 µM (inactive)	28.5 µM (inactive)	31.3 µM (inactive)	40.3 µM (inactive)	31 µM (inactive)	24.9 µM	33.8 µM (inactive)	32.1 µM (inactive)	30.5 µM (inactive)	27 µM (inactive)	23.9 µM (inactive)	12.1 µM (inactive)	27.5 µM (inactive)	27 µM (inactive)	36.1 µM (inactive)
COCn1c2ccc(OC(C)=O)cc2c2c(=O)oc(N(C)C)nc21	> 100 µM (inactive)	> 100 µM (inactive)	> 100 µM (inactive)	> 100 µM (inactive)	> 100 µM (inactive)	> 100 µM (inactive)	> 100 µM (inactive)	> 100 µM (inactive)	> 100 µM (inactive)	> 100 µM (inactive)	> 100 µM	> 100 µM (inactive)	> 100 µM (inactive)	> 100 µM (inactive)	> 100 µM (inactive)	> 100 µM (inactive)	> 100 µM (inactive)	> 100 µM (inactive)	> 100 µM (inactive)	> 100 µM (inactive)
CCCNc1[nH]c(C(C)=O)c(N)c1C(=S)Nc1ccccc1	39.3 µM (inactive)	37 µM (inactive)	19.2 µM (inactive)	27.7 µM (inactive)	17.2 µM (inactive)	27.4 µM (inactive)	26.4 µM (inactive)	39.1 µM (inactive)	> 100 µM (inactive)	34 µM (inactive)	31.8 µM	38.4 µM (inactive)	43.4 µM (inactive)	28.7 µM (inactive)	34.8 µM (inactive)	24.2 µM (inactive)	10.8 µM (inactive)	33.3 µM (inactive)	20.4 µM (inactive)	36.6 µM (inactive)
CC(=O)O[C@H]1CCc2c(cc(N)c3c2C(=O)C[C@]2(C)C([C@H](C)CCCC(C)C)CCC32C)C1(C)C (stereo not given in full)	17.1 µM (inactive)	> 100 µM (inactive)	57.9 µM (inactive)	33.3 µM (inactive)	33.9 µM (inactive)	73.6 µM (inactive)	> 100 µM (inactive)	> 100 µM (inactive)	> 100 µM (inactive)	> 100 µM (inactive)	> 100 µM	> 100 µM (inactive)	33.7 µM (inactive)	42.4 µM (inactive)	89.7 µM (inactive)	> 100 µM (inactive)	71.9 µM (inactive)	> 100 µM (inactive)	> 100 µM (inactive)	> 100 µM (inactive)
NC(Cc1n[nH]c2ccccc12)C(=O)O (stereo not given)	> 100 µM (inactive)	> 100 µM (inactive)	> 100 µM (inactive)	> 100 µM (inactive)	> 100 µM (inactive)	> 100 µM (inactive)	> 100 µM (inactive)	> 100 µM (inactive)	> 100 µM (inactive)	> 100 µM (inactive)	> 100 µM	> 100 µM (inactive)	> 100 µM (inactive)	> 100 µM (inactive)	> 100 µM (inactive)	> 100 µM (inactive)	> 100 µM (inactive)	> 100 µM (inactive)	> 100 µM (inactive)	> 100 µM (inactive)
COc1cc(OC(=O)c2ccccc2)cc2c1C(=O)C=CC2=O	25.1 µM (inactive)	22.6 µM (inactive)	11 µM (inactive)	18.9 µM (inactive)	0.469 µM (active)	18.5 µM (inactive)	8.39 µM (inactive)	17.9 µM (inactive)	8.79 µM (inactive)	15.1 µM (inactive)	11.9 µM	30.6 µM (inactive)	1.88 µM (inactive)	15.2 µM (inactive)	6.35 µM (inactive)	15.8 µM (inactive)	20.1 µM (inactive)	36.2 µM (inactive)	10.9 µM (inactive)	2.29 µM (inactive)
CCCc1cn2c(/C=N/N=C(N)N)c(-c3c(OC)ccc(OC)c3[N+](=O)[O-])nc2s1	13.1 µM (inactive)	16.3 µM (inactive)	2.81 µM (inactive)	14.6 µM (inactive)	2.03 µM (inactive)	21.2 µM (inactive)	9.89 µM (inactive)	16.8 µM (inactive)	7.78 µM (inactive)	3.16 µM (inactive)	18.2 µM	18.4 µM (inactive)	3.44 µM (inactive)	19.8 µM (inactive)	6.18 µM (inactive)	10.9 µM (inactive)	16.9 µM (inactive)	19.4 µM (inactive)	9.55 µM (inactive)	4.07 µM (inactive)
O=c1cc(CN2CCCCC2)nc2ccc3c(O)cc(CN4CCCCC4)nc3n12	> 100 µM (inactive)	> 100 µM (inactive)	> 100 µM (inactive)	> 100 µM (inactive)	> 100 µM (inactive)	> 100 µM (inactive)	> 100 µM (inactive)	> 100 µM (inactive)	> 100 µM (inactive)	> 100 µM (inactive)	> 100 µM	> 100 µM (inactive)	> 100 µM (inactive)	> 100 µM (inactive)	> 100 µM (inactive)	> 100 µM (inactive)	> 100 µM (inactive)	> 100 µM (inactive)	> 100 µM (inactive)	> 100 µM (inactive)
COc1ccc(/[N+]([O-])=C/c2ccc(OC(=S)S)c(OC)c2)cc1	34.4 µM (inactive)	16.3 µM (inactive)	5.58 µM (inactive)	38.5 µM (inactive)	15.6 µM (inactive)	> 100 µM (inactive)	50.6 µM (inactive)	85.1 µM (inactive)	30.9 µM (inactive)	8.39 µM (inactive)	22.2 µM	43.6 µM (inactive)	21.7 µM (inactive)	22.7 µM (inactive)	28.5 µM (inactive)	26.2 µM (inactive)	45.4 µM (inactive)	40.6 µM (inactive)	19.6 µM (inactive)	> 100 µM (inactive)
